Reference: PubChem BioAssay AID788 (SRMLSC, 2007)
Active and inactive are the calls of the source. The rule behind the calls is not given here.

Experiments:
[1] = tested on: S. cerevisiae vps1Δ apl2Δ growth inhibition, dose response; assay: vps1Δ apl2Δ double mutant yeast growth inhibitors – S. cerevisiae, background strain comparison, post-Golgi transport modulator project, dose response (AID 788)
[2] = tested on: S. cerevisiae wild-type background strain growth inhibition; assay: as above; conditions: S. cerevisiae vps1Δ apl2Δ growth inhibition, dose response; measured here: wild-type background strain growth

Row | Structure (SMILES) | IC50 [1] | IC50 [2] [µM]
1 | O=C(OCn1nnc2ccccc2c1=O)c1cn(-c2ccccc2)nc1-c1cccnc1 | > 10 µM (inactive) | > 10
2 | O=C(COc1ccc(Cl)cc1)Nc1ccc(N2CCN(C(=O)c3ccco3)CC2)cc1 | > 10 µM (inactive) | > 10
3 | O=S(=O)(c1cnccc1N1CCN(/N=C/c2ccc(Br)cc2)CC1)N1CCCCC1 | > 10 µM (inactive) | > 10
4 | CC(=O)c1cnc2nc(C)nn2c1C | > 10 µM (inactive) | > 10
5 | CCn1c(SCC(=O)N2CCCc3ccccc32)nnc1-c1ccco1 | > 10 µM (inactive) | > 10
6 | O=C(N/N=C/c1ccc([N+](=O)[O-])o1)c1cc(-c2cccc(Br)c2)nc2ccccc12 | 1.02 µM | 4.65
7 | Cc1ccc(CSc2nc3ccccc3cc2C=O)cc1 | 2.37 µM (inactive) | 2.1
8 | N=c1c2c(-c3ccccc3)c(-c3ccccc3)n(Cc3ccco3)c2ncn1Cc1ccco1 | 16 µM | 21.5
9 | CCC(=O)c1ccc(N2CCN(C(=O)c3ccc(Br)cc3)CC2)c(F)c1 | 25 µM | > 10
10 | Cc1ccc(OCC(O)CN2CCN(Cc3ccc4c(c3)OCO4)CC2)c(C)c1 (stereo not given) | 2.35 µM | > 10
11 | Cc1ccc(C(C)C)c(OCCCN2CC(C)OC(C)C2)c1 (stereo not given) | 9.78 µM | > 10
12 | O=C1CN(C(=O)CSc2nnc(-c3ccccc3)n2Cc2ccc3c(c2)OCO3)c2ccccc2N1 | > 10 µM (inactive) | > 10
13 | CSc1ncccc1C(=O)OCC(=O)N1CCOCC1 | > 10 µM (inactive) | > 10
14 | CCOC(=O)C1=C(CSc2nc(-c3ccccc3)ccc2C#N)OC(N)=C(C#N)C1c1cccnc1 (stereo not given) | > 10 µM (inactive) | > 10
15 | C=CCc1ccc(OCC(O)CN2CCC(Cc3ccccc3)CC2)c(OC)c1 (stereo not given) | 4.2 µM | 19.1
16 | Fc1ccc(Cn2nnc(-c3ccc(CN4CCOCC4)cc3)n2)cc1 | 5.15 µM | > 10
17 | COc1ccc(C2=NC(C(F)(F)F)(C(F)(F)F)c3c(n(C)c(=O)n(C)c3=O)N2)cc1 | > 10 µM (inactive) | > 10
18 | O=C(Nc1nnc(-c2ccc3c(c2)CCCC3)o1)c1ccccc1Cl | 14.6 µM (inactive) | 10.7
19 | O=c1c2c3c(sc2ncn1/N=C/c1ccc([N+](=O)[O-])o1)CCCC3 | 1.8 µM (inactive) | 1.59
20 | CCc1n[nH]c2c1/C(=N\O)CC(C)(C)C2 | > 10 µM (inactive) | > 10
21 | O=C(NCC(=O)N(c1cccnc1)C(C(=O)NCc1ccco1)c1ccccc1)c1ccco1 (stereo not given) | > 10 µM (inactive) | > 10
22 | Cc1cc(Cl)cc(C)c1OCCCCN1CCOCC1 | > 10 µM (inactive) | > 10
23 | O=C(OCn1ncc(Br)c(Br)c1=O)c1ccccc1Cl | 21 µM | 
24 | N#Cc1nc(COc2ccc(-c3ccccc3)cc2)oc1NCCCN1CCOCC1 | 13.8 µM | 15.4
25 | CC(c1nnc(SCn2nnc3ccccc3c2=O)n1-c1ccc(Cl)cc1)N(C)C (stereo not given) | 2.16 µM | 
26 | CC1CCC(C(C)C)C(OCC(O)CN2CCN(Cc3ccccc3)CC2)C1 (stereo not given) | 4.77 µM | 

Row | Structure (SMILES) | IC50 [1] | IC50 [2] [µM]
27 | CC(C)c1ccc(C(=O)CSc2n[nH]c(-c3ccncc3)n2)cc1 | 5.64 µM | 
28 | O=C(CN1CCN(c2ccccn2)CC1)Nc1ccc(Oc2ccccc2)cc1 | > 10 µM (inactive) | 
29 | O=C(Nc1nnc(-c2ccc(Cl)cc2)o1)c1ccccc1Br |  | 13.1
30 | c1ccc2c(c1)oc1c(Nc3ccc(CN4CCOCC4)cc3)ncnc12 |  | > 10
31 | N=c1c2c(-c3ccccc3)c(-c3ccccc3)n(Cc3ccco3)c2ncn1Cc1ccccc1 | 18.9 µM | 
32 | Cc1ccc(C(=O)Nc2ccc(Cc3ccncc3)cc2)cc1[N+](=O)[O-] | 23.4 µM | 
33 | CC12CCC(c3c(C(=O)Nc4nccs4)nn(-c4ccccc4)c31)C2(C)C (stereo not given) | > 10 µM (inactive) | 
34 | Cc1nnc(-c2cccc(Br)c2)c2cn(-c3ccccc3)nc12 |  | > 10
35 | O=[N+]([O-])c1cc(Cl)cc(/C=N\Nc2ccccn2)c1O | 9.68 µM | 
36 | CC(Sc1ccsc1[N+](=O)[O-])C(=O)NCCc1ccc(Cl)cc1 (stereo not given) | > 10 µM (inactive) | 
37 | O=S1(=O)C=C(Sc2nc3ccccc3s2)c2ccccc21 | > 10 µM (inactive) | 
38 | O=C(NCC1COc2ccccc2O1)c1ccc(Cl)cc1 (stereo not given) | 1.32 µM | 
39 | Cc1cc(NCCCN2CCOCC2)n2ncc(-c3ccc(Cl)cc3)c2n1 |  | > 10
40 | CCOc1ccc(NC(=O)N(C2CCCCC2)C(C)c2cccnc2)cc1 (stereo not given) | 15 µM | 
41 | N#Cc1ccccc1Cn1cc(C(=O)c2cccs2)c2ccccc21 | > 10 µM (inactive) | 
42 | O=C(NC1CCN(Cc2ccccc2)CC1)C1COc2ccccc2O1 (stereo not given) |  | > 10
43 | CCOc1nc(SCCOc2ccccc2)nc(N(C)C)n1 | > 10 µM (inactive) | 
44 | O=C1C=C(c2ccccc2)C(=O)N1Nc1ccccc1 | 20 µM | 
45 | CCCCCCOc1ccc(CN2CCN(CCO)CC2)cc1 | 5.19 µM | 
46 | CCCCC(=O)Nc1nc(C)c(-c2csc(Nc3ccc(Cl)cc3)n2)s1 |  | 6.26
47 | O=S(=O)(Cc1ccccc1Cl)N1CCN(Cc2ccc3c(c2)OCO3)CC1 | 9.91 µM | 
48 | CC1CCN(S(=O)(=O)c2ccc(NC(=O)CCN3C(=O)c4ccccc4C3=O)cc2)CC1 | > 10 µM (inactive) | 
49 | Cc1[nH]nc(N=CC2=C(O)CC(C)(C)CC2=O)c1-c1ccc(Cl)cc1 | > 10 µM (inactive) | 
50 | COc1ccc(OCCSc2nnc3sc4ccccc4n23)cc1 | > 10 µM (inactive) | 
51 | C=C(C)COc1ccc(-c2ncncc2Oc2ccc(OC)cc2)c(O)c1 |  | > 10
52 | CCOc1cc(/C=C\[N+](=O)[O-])ccc1OCC(=O)Nc1ccccc1C |  | > 10
